Laboratory results as given in the PolyMetriX glass transition set.
± gives the standard deviation of the reports.

Structure (SMILES)	glass transition temperature
*/C(C)=C(/*)[Si](C)(C)CCCCCC (repeat unit)	200.00 °C
*CC(*)c1ccc(O)cc1 (repeat unit) [Poly(4-hydroxystyrene)]	157.42 ± 0.8 °C
*Oc1ccc(C(=O)c2ccc(C(=O)c3ccc(Oc4cccc(Cc5cccc(*)c5)c4)cc3)cc2)cc1 (repeat unit)	122.00 °C
*c1ccc(Oc2ccc(C(c3ccc(Oc4ccc(N5C(=O)c6ccc(Oc7ccc(Sc8ccc(Oc9ccc%10c(c9)C(=O)N(*)C%10=O)cc8)cc7)cc6C5=O)cc4)cc3)(C(F)(F)F)C(F)(F)F)cc2)cc1 (repeat unit)	217.50 °C
*OP(=O)(Oc1ccc(OC)cc1)Oc1ccc(S(=O)(=O)c2ccc(*)cc2)cc1 (repeat unit)	81.00 °C
*CC(O)CO* (repeat unit)	17.00 °C
*c1ccc2c(c1)C(=O)N(c1cccc(N3C(=O)c4ccc(C(*)(C(F)(F)F)C(F)(F)F)cc4C3=O)c1C)C2=O (repeat unit)	353.50 °C
*CCCCCNC(=O)CC(=O)N* (repeat unit)	65.00 °C
*CCN(CCOC(=O)c1ccc(C(=O)O*)c(OCCC)c1)c1ccc(/N=N/c2ccc(-c3nc4ccccc4o3)cc2)cc1 (repeat unit)	117.00 °C
*C(=O)c1ccc2c(c1)C(=O)N(c1ccc(OCCOc3ccc(N4C(=O)c5ccc(*)cc5C4=O)cc3)cc1)C2=O (repeat unit)	246.00 °C
*OP(=O)(Oc1ccc(Br)cc1)Oc1ccc(S(=O)(=O)c2ccc(*)cc2)cc1 (repeat unit)	89.00 °C
*CC(=O)NCCCCCCNC(=O)COc1ccc(O*)cc1 (repeat unit)	67.00 °C
*CC(*)(Cl)C(=O)OCCOc1ccc(C(=O)Oc2ccc(OCCCC)cc2)cc1 (repeat unit)	153.00 °C
*CC(*)CNc1ccc([N+](=O)[O-])cc1 (repeat unit)	144.00 °C
*CC(*)c1cccc(B(O[Si](C)(C)C)O[Si](C)(C)C)c1 (repeat unit)	35.00 °C
*CC(CCCCCC)C(CCCCCC)COC(=O)c1ccc(C(=O)O*)cc1 (repeat unit)	-15.50 °C
*c1ccc(Cc2ccc(NC(=O)c3cccc(-c4nc5cc(-c6ccc7[nH]c(-c8cccc(C(=O)Nc9ccc(Cc%10ccc(-n%11c(=O)c%12cc%13c(=O)n(*)c(=O)c%13cc%12c%11=O)cc%10)cc9)c8)nc7c6)ccc5[nH]4)c3)cc2)cc1 (repeat unit)	277.00 °C
*CC(=O)C(*)c1ccc(C(C)(C)C)cc1 (repeat unit)	158.00 °C
*CC1CCC(COC(=O)O*)CC1 (repeat unit)	38.70 °C
*CCCCCCOc1ccc(C(=O)OC(=O)c2ccc(O*)cc2)cc1 (repeat unit)	47.00 °C
*CCCCCCCCCCOC(=O)CCCCCCCCC(=O)O* (repeat unit)	-54.00 °C
*Oc1c(C)c(C)c(Oc2ccc(NC(=O)c3ccc(C(=O)Nc4ccc(*)cc4)cc3)cc2)c(C)c1C (repeat unit)	310.00 °C

Structure (SMILES)	glass transition temperature
*C(=O)Nc1ccc(-c2ccc(NC(=O)c3ccc4c(c3)C(=O)N(c3c(C)cc(C)c(N5C(=O)c6ccc(*)cc6C5=O)c3C)C4=O)cc2C)c(C)c1 (repeat unit)	259.00 °C
*C(=O)OCCN(CCOC(=O)c1ccc2c(c1)C(=O)N(c1cccc(N3C(=O)c4ccc(*)cc4C3=O)c1)C2=O)c1ccc(/N=N/c2ccc(C)cc2)cc1 (repeat unit)	171.00 °C
*CCCCCCOC(=O)CCCCCCCCC(=O)O* (repeat unit)	-38.00 °C
*CC(*)c1ccc(COCCOCC)cc1 (repeat unit)	0.00 °C
*c1ccc(-c2ccc(Oc3ccc(C4(C)CC(C)(C)c5ccc(Oc6ccc(-c7ccc(N8C(=O)c9ccc(Oc%10ccc(C(C)(C)c%11ccc(Oc%12ccc%13c(c%12)C(=O)N(*)C%13=O)cc%11)cc%10)cc9C8=O)cc7)cc6C(F)(F)F)cc54)cc3)c(C(F)(F)F)c2)cc1 (repeat unit)	241.00 °C
*c1ccc(Oc2ccc(Oc3ccc(N4C(=O)c5cccc(Oc6ccc(C(C)(C)c7ccc(Oc8cccc9c8C(=O)N(*)C9=O)cc7)cc6)c5C4=O)c(C)c3)cc2)cc1C (repeat unit)	222.00 °C
*CCCNC(=O)C(NC(=O)C(Cc1ccccc1)NC(=O)CCCCCCCCC(=O)NC(Cc1ccccc1)C(=O)NC(C(=O)NCCCOCCOCCO*)C(C)C)C(C)C (repeat unit)	66.00 °C
*c1ccc(-c2ccc(N3C(=O)c4ccc(-c5cccc6c5C(=O)N(*)C6=O)cc4C3=O)cc2C(F)(F)F)c(C(F)(F)F)c1 (repeat unit)	346.00 °C
*c1ccc(Cc2ccc(N3C(=O)c4cc(-c5ccc([Si](C)(C)C)cc5)c(-c5cc6c(cc5-c5ccc([Si](C)(C)C)cc5)C(=O)N(*)C6=O)cc4C3=O)cc2)cc1 (repeat unit)	348.00 °C
*CC(*)C(=O)Oc1ccccc1C(=O)OC (repeat unit)	46.00 °C
*C/C=C/C(CC)S(*)(=O)=O (repeat unit)	70.10 °C
*CCCOC(=O)CCCC(=O)O* (repeat unit)	-33.00 °C
*CC(*)(C)C(=O)OCCOCCOCCOCCOc1ccc(/N=N/c2ccc(C#N)cc2)cc1 (repeat unit)	20.00 °C
*/N=N/c1ccc(Nc2ccc(C(=O)c3ccc(C(=O)c4ccc(Nc5ccc(*)cc5)cc4)cc3)cc2)cc1 (repeat unit)	203.00 °C
*c1ccc(Oc2cccc(Oc3ccc(N4C(=O)c5ccc(-c6cccc7c6C(=O)N(*)C7=O)cc5C4=O)cc3)c2)cc1 (repeat unit)	248.00 ± 25 °C
*c1ccc(Oc2ccc(C(=O)c3ccc(Oc4ccc(-c5nc6ccccc6n5-c5ccc(-n6c(*)nc7ccccc76)cc5)cc4)cc3)cc2)cc1 (repeat unit)	242.00 °C
*C1C(=O)OC(=O)C1C1C2CC(C(=O)OCCOCC)C(C2)C1* (repeat unit)	155.00 °C
*c1ccc(-c2cc(-c3ccc(OCCCCCCCCCCCC)cc3)cc(-c3ccc(-c4ccc5c(c4)C(CCCCCC)(CCCCCC)c4cc(*)ccc4-5)cc3)c2-c2ccc(OCCCCCCCCCCCC)cc2)cc1 (repeat unit)	79.00 °C
*OP(=O)(Oc1c(Cl)cccc1Cl)Oc1c(Cl)c(Cl)c(*)c(Cl)c1Cl (repeat unit)	144.00 °C
*CC(*)(C)C(=O)Oc1cccc(C)c1C (repeat unit)	120.00 °C
*Oc1cccc(NC(=O)c2cc(C(=O)Nc3ccc(*)cc3)cc(C(F)(F)C(F)(F)C(F)(F)C(F)(F)F)c2)c1 (repeat unit)	230.00 °C
*CC(F)(F)C(F)(F)C(F)(F)COC(=O)c1cccc(C(=O)O*)c1 (repeat unit)	23.50 °C

Structure (SMILES)	glass transition temperature
*c1ccc(-c2ccc(N3C(=O)c4c(c(-c5ccccc5)c(-c5ccc(Oc6ccc(-c7c(-c8ccccc8)c8c(c(-c9ccccc9)c7-c7ccccc7)C(=O)N(*)C8=O)cc6)cc5)c(-c5ccccc5)c4-c4ccccc4)C3=O)cc2)cc1 (repeat unit)	399.00 °C
*c1ccc(C(C#N)(C(=O)OC)C(*)(C#N)C(=O)OC)cc1 (repeat unit)	108.00 °C
*c1ccc(Oc2ccc(S(=O)(=O)c3ccc(Oc4ccc(-c5c6c(c(*)c7ccccc57)C(=O)N(c5ccc(Cl)cc5)C6=O)cc4)cc3)cc2)cc1 (repeat unit)	280.00 °C
*Oc1cccc2ccc(Oc3ccc(NC(=O)c4ccc(Oc5ccc(C(=O)Nc6ccc(*)cc6)cc5)cc4)cc3)cc12 (repeat unit)	236.00 °C
*CCCCCCCCNC(=O)C(OC)C(OC)C(=O)N* (repeat unit)	89.00 °C
*c1ccc(Oc2ccc(N3C(=O)c4ccc(P(=O)(c5ccccc5)c5ccc6c(c5)C(=O)N(*)C6=O)cc4C3=O)cc2)cc1 (repeat unit)	318.00 °C
*C(F)(F)C(*)(F)OC(F)(F)F (repeat unit)	-5.00 °C
*Cc1ccccc1CN(CC)c1ccc(/C=C(\C#N)C(=O)Nc2cccc(NC(=O)/C(C#N)=C/c3ccc(N(*)CC)cc3)c2)cc1 (repeat unit)	188.00 °C
*CC(C)C(=O)O* (repeat unit)	-25.00 °C
*O[Si](*)(C)CCCCCCCCCCCOc1ccc(C(=O)OC/C=C(\C)CCC=C(C)C)cc1 (repeat unit)	25.00 °C
*Oc1ccc(CC(NC(=O)CCc2ccc(OC(=O)CCCC(*)=O)cc2)C(=O)OC(C)C)cc1 (repeat unit)	68.00 °C
*CC(*)(C)C(=O)OCCO[Si](C)(C)C (repeat unit)	89.00 °C
*CCCCCCCCOc1cccc(NC(=O)c2cccc(C(=O)Nc3cccc(O*)c3)c2)c1 (repeat unit)	117.00 °C
*Oc1ccc(-c2ccc(NC(=O)c3cc(C(=O)Nc4ccc(-c5ccc(Oc6ccc(C(C)(C)c7ccc(*)cc7)cc6)c(C(F)(F)F)c5)cc4)cc(C(C)(C)C)c3)cc2)cc1C(F)(F)F (repeat unit)	248.50 °C
*CC(*)C(=O)Nc1ccc2c(c1)C(=O)c1ccccc1C2=O (repeat unit)	128.00 °C
*Oc1ccc(C(c2ccccc2)(c2ccccc2)c2ccc(OC(=O)OC3C(C)(C)C(OC(*)=O)C3(C)C)cc2)cc1 (repeat unit)	161.00 °C
*Oc1ccc(S(=O)(=O)c2ccc(Oc3c(C(C)C)cc(C(C)(C)c4cc(C(C)C)c(*)c(C(C)C)c4)cc3C(C)C)cc2)cc1 (repeat unit)	175.00 °C
*c1ccc(Sc2ccc(Sc3ccc(Sc4ccc(S(*)=O)cc4)cc3)cc2)cc1 (repeat unit)	133.00 °C
*C(=O)c1cc(C(=O)c2ccc3c(c2)C(=O)N(c2ccc(C(c4ccc(N5C(=O)c6ccc(*)cc6C5=O)cc4)(C(F)(F)F)C(F)(F)F)cc2)C3=O)cc(C(C)(C)C)c1 (repeat unit)	267.50 °C
*CCCCCCCCCCOc1ccc(/C=C/c2ccc(OCCCCCCCCCCOP(=O)(O*)OCCCCCCCCCCOc3ccc(/N=N/c4ccccc4)cc3)cc2)cc1 (repeat unit)	55.00 °C
*CC(C)(CC)COC(=O)CCCCCCCCC(=O)O* (repeat unit)	-69.00 °C
